Calls of active or inactive are those of the source.
Key:
[1] = target: DNA (cytosine-5)-methyltransferase 1 (Homo sapiens, UniProt P26358); experiment: inhibition of DNA methylation by DNMT1 – biochemical, fluorescent molecular beacon, confirmation (AID 602386); assay type: functional
[2] = target: T1, Low molecular weight phosphotyrosine protein phosphatase (Homo sapiens, UniProt P24666); assay type: functional; settings: read-out: IC50_Mean
[3] = target: T1, Low molecular weight phosphotyrosine protein phosphatase; assay type: functional; settings: read-out: IC50_Mean; remark: listed apart in the source
[4] = mouse fibroblast viability loss – cell-based, cherry-pick samples, set 2, cytotoxicity control for T. cruzi growth inhibitor project, dose response (AID 651817); assay type: functional; settings: NIH3T3
[5] = intracellular Trypanosoma cruzi inhibitors in host cells – cell-based, plate reader, cherry-pick samples, set 3, dose response (AID 651818); assay type: functional;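 note: compounds incubated with infected cells for about four days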
Mu-type opioid receptor = Mu-type opioid receptor (Homo sapiens, UniProt P35372); assay type: functional, cell-based;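 note: U2OS cells with beta-arrestin recruitment to OPRM1 by beta-gal complementation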
[6] = target: 5-hydroxytryptamine receptor 2A (Mus musculus, UniProt P35363); assay type: functional, cell-based;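 note: CHO-K1 cells with tagged receptor and beta-arrestin; agonist potency measured as compound-induced activation of the receptor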
[7] = target: Arf-GAP with SH3 domain, ANK repeat and PH domain-containing protein 1 (Homo sapiens, UniProt Q9ULH1); assay type: functional;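 note: biochemical fluorescence polarization dose–response screen measuring inhibition of ASAP1; ASAP1 GAP domain stimulating GTP hydrolysis by truncated human ARF1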
Chain of Arf-GAP with SH3 domain, ANK repeat and PH domain-containing protein 1 (Q9ULH1 whole entry, the tested form may be a part): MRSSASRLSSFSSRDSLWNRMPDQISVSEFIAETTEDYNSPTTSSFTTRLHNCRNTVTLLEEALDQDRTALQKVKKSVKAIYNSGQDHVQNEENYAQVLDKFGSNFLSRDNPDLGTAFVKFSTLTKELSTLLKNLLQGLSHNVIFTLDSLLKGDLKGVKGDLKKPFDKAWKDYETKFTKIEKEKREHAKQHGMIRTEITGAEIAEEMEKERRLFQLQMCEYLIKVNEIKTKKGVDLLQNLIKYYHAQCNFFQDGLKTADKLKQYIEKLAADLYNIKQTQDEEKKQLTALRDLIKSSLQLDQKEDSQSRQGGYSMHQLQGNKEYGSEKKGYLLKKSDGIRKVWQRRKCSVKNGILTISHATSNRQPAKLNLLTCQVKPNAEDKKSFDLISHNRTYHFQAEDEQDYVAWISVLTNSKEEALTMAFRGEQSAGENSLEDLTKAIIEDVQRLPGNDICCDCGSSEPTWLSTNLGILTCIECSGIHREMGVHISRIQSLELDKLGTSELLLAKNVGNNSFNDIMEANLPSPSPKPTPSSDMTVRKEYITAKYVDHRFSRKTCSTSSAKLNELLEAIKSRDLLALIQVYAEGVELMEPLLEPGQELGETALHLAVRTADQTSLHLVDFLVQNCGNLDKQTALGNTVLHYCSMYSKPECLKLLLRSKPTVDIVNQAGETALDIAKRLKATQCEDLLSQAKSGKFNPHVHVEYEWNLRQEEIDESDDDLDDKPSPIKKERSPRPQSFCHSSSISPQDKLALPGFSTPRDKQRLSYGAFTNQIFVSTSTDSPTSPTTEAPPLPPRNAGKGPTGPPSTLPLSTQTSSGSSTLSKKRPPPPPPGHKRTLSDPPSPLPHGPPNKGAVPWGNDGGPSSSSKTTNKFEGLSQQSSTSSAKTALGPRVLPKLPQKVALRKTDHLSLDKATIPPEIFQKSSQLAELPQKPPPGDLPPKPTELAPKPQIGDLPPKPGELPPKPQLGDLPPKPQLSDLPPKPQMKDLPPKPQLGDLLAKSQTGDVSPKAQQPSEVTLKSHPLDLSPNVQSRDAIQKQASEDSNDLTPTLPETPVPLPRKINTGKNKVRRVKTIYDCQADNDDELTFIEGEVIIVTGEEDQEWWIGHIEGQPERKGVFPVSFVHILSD

T1 sequence (P24666 whole entry): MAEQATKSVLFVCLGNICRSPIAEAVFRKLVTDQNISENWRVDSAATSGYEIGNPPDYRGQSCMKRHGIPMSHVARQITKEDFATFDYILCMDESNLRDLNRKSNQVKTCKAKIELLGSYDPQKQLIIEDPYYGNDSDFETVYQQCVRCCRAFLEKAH
Chain of Mu-type opioid receptor (P35372 whole entry): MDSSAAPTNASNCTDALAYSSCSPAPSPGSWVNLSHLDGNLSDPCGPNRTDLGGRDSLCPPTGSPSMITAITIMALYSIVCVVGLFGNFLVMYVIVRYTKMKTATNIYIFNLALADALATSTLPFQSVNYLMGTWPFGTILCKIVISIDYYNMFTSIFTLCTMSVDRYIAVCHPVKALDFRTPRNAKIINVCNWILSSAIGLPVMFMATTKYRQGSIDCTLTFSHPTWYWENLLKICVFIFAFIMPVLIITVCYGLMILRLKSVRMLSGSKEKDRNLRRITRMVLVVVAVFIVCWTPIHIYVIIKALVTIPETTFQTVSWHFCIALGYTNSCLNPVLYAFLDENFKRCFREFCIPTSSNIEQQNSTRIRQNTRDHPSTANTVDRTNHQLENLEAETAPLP
Chain of 5-hydroxytryptamine receptor 2A (P35363 whole entry, the tested form may be a part): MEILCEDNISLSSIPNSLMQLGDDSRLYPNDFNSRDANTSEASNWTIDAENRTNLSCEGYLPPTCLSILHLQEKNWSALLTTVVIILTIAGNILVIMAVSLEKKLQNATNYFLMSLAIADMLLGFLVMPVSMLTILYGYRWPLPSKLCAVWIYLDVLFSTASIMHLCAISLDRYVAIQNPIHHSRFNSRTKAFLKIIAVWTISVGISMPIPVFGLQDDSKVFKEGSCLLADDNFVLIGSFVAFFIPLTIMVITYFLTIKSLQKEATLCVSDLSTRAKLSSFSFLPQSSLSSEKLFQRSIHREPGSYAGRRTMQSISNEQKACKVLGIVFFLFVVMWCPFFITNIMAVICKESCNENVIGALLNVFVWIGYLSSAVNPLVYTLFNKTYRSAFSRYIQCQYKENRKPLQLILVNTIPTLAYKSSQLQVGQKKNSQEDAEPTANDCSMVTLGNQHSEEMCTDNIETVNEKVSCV
Chain of DNA (cytosine-5)-methyltransferase 1 (P26358 whole entry): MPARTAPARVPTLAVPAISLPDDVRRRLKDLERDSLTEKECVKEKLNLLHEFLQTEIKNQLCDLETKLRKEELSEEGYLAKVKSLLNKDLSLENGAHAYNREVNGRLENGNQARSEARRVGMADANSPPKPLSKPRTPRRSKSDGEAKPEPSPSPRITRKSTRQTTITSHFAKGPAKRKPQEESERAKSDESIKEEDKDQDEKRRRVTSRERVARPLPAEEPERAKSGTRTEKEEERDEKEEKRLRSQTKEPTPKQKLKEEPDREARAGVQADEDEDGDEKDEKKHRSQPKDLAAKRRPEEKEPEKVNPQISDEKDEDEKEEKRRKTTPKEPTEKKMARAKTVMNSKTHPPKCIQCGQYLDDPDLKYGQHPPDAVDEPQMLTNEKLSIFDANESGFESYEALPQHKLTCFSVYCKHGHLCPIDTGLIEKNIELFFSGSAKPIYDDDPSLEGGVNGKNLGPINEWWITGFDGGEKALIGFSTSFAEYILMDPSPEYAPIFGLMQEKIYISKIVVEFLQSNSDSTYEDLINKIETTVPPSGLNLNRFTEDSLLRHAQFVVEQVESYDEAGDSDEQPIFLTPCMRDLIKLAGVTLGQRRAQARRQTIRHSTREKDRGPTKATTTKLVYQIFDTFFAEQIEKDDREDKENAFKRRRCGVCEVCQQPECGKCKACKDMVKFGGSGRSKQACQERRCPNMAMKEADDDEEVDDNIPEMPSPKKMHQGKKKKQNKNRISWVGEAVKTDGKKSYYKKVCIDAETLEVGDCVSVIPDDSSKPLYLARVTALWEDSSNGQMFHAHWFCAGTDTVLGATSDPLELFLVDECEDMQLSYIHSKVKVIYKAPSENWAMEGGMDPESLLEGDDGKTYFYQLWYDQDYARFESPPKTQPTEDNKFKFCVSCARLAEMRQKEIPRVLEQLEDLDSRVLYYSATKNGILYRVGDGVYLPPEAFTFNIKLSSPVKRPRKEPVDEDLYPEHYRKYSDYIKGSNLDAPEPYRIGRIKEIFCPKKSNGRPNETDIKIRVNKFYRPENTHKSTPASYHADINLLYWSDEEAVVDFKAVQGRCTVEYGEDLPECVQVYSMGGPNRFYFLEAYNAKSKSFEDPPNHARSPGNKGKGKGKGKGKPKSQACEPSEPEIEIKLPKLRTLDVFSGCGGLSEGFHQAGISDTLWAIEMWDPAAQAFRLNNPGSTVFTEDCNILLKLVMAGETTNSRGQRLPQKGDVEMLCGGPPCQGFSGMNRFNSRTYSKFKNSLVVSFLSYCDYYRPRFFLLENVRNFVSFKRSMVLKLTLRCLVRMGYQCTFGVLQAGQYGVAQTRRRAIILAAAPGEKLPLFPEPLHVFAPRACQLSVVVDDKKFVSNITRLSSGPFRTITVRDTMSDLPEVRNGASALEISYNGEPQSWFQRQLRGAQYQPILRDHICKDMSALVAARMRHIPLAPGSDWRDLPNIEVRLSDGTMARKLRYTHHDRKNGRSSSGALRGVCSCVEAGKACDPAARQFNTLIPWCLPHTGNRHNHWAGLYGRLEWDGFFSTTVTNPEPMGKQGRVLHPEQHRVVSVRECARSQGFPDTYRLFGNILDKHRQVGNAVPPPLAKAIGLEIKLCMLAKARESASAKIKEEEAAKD

Cc1ccc(-c2nn(-c3ccccc3)cc2C=C2SC(=S)N(CCS(=O)(=O)O)C2=O)cc1
IC50 [1]: 4.93 µM (active) | IC50 [2]: > 80 µM (inactive) | IC50 [3]: 10.4 µM (active)

Cc1ccc(S(=O)(=O)Nc2ccc3c(c2)CC(=O)N([C@@H](C)CO)C[C@H](C)[C@@H](CN(C)Cc2ccc(Cl)c(Cl)c2)O3)cc1
AC50 [4]: 8.45 µM (active) | AC50 [5]: 3.89 µM (active)

COc1ccc(C)cc1NC(=O)CCN1CCN(c2ccccc2F)CC1
EC50 (Mu-type opioid receptor): 92.5 µM (inactive) | EC50 [6]: 76.1 µM (inactive)

O=[N+]([O-])c1ccc(OCCOc2ccccc2/C=N/n2cnnc2)cc1
IC50 [7]: 22.5 µM (inactive)

— ChEMBL document CHEMBL1201862, “PubChem BioAssay data set” (2004)
